In this test the target is T1, S-COMT enzyme (Homo sapiens, UniProt P21964).
T1 sequence (P21964 1-221 isoform P21964-2): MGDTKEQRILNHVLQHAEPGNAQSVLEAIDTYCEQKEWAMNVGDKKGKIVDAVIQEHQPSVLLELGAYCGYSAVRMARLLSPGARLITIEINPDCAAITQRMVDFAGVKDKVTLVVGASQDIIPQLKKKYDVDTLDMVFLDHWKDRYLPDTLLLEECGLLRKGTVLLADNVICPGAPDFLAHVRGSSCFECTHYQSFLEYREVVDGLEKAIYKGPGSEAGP
The experiment in a line: Determination of COMT activity (IC50). It is filed as biochemical. The settings on record: S-COMT about 30 nM, 3 mM dopamine substrate, 0.05 mM AdoMet, 5 mM MgCl2, pH 7.4, 37° C., 15 min. How it is done: Experiment I: Determination of COMT Activity (IC50)
The determination of IC50 was performed by mesuring the COMT activity in a test sample which contained S-COMT enzyme (about 30 nM), 3 mM dopamine (as the substrate of COMT), 5 mM magnesium chloride, 0.05 mM S-adenosyl-L-methionine (AdoMet) and a test compound of the invention at various concentrations in 0.1 M phosphate buffer, pH 7.4, at 37° C.
The reaction in the test sample was initiated by adding the dopamine substrate to the sample mixture and, after incubation for 15 min at 37° C., the reaction was stopped with 4 M perchloric acid and stabilized further 10 min in ice bath. Thereafter the precipitated proteins were removed by centrifugation (4000×G for 10 min). The activity of COMT enzyme was measured by determining the concentration of the reaction products, 3-methyldopamine and 4-methyidopamine, by HPLC. The results were calibrated with 3-methyidopamine standards. See also T.Lotta et al., Biochemistry, vol.34(13), 1995, p.4204, T.Lotta et al. The IC50 value is the concentration of the test compound which causes a 50% decrease in COMT activity.

Our source for the IC50 values is patent US6951870B2, “Coumarin derivatives with COMT inhibiting activity” (Orion Corporation, priority 2000, dated 2005).

`O=c1oc2c([N+](=O)[O-])c(O)c(O)cc2cc1-c1ccccc1` [Example 6(b), 6,7-Dihydroxy-8-nitro-3-phenyl-chromen-2-one]: the midpoint of inhibition, the IC50, lay at 30 nM.
Regarding `O=C(c1ccccc1)c1cc2c([N+](=O)[O-])c(O)c(O)cc2oc1=O` [Example 7, 3-Benzoyl-6,7-dihydroxy-5-nitro-chromen-2-one], half-maximal inhibition (IC50) was put at 30 nM.
The figure for `O=c1oc2cc(O)c(O)c([N+](=O)[O-])c2c2c1CCCC2` [Example 8, 2,3-Dihydroxy-1-nitro-7,8,9,10-tetrahydro-benzo[c]chromen-6-one] is 50 nM; for `O=C(O)c1cc2c([N+](=O)[O-])c(O)c(O)cc2oc1=O` [Example 9(c), 6,7-Dihydroxy-5-nitro-2-oxo-2H-chromene-3-carboxylic acid] it is 20 nM; for `O=C(O)c1cc2cc(O)c(O)c([N+](=O)[O-])c2oc1=O` [Example 10(d), 6,7-Dihydroxy-8-nitro-2-oxo-2H-chromene-3-carboxylic acid] it is 35 nM.
As for `O=C(O)Cc1cc2c([N+](=O)[O-])c(O)c(O)cc2oc1=O` [Example 11(c), (6,7-Dihydroxy-5-nitro-2-oxo-2H-chromen-3-yl)-acetic acid], the IC50 (in general, the midpoint of a concentration-inhibition curve) turned out to be 10 nM. Compared with the last compound, the IC50 is about 3.5-fold lower.
The same measure for `O=c1oc2cc(O)c(O)c([N+](=O)[O-])c2cc1-c1nnn[nH]1` [Example 12(b), 6,7-Dihydroxy-5-nitro-3-(1H-tetrazol-5-yl)-chromen-2-one]: 10 nM.
Compound `Cc1c(CC(=O)O)c(=O)oc2cc(O)c(O)c([N+](=O)[O-])c12` [Example 13(c), (6,7-Dihydroxy-4-methyl-5-nitro-2-oxo-2H-chromen-3-yl)-acetic acid] registered a 50% inhibitory concentration (IC50) of 60 nM.
